# From US20030215462A1, “Use of UGT inhibitors to increase bioavailability” (priority 2001, published 2003)
# Where “and” joins values, the source holds several entries; their conditions need not be identical. Equal entries are not always repeated.
# Experiments:
# UGT1A9 = target: T1, UGT1A9 (Homo sapiens, UniProt O60656); assay: Inhibition of raloxifene glucuronidation by recombinant UGT1A9 Supersomes; settings: for Inhibition of raloxifene glucuronidation, UGT1A9, first line per inhibitor (G1): first line (G1, metabolite not given); for Inhibition of raloxifene glucuronidation, UGT1A9, first line per inhibitor (G1) / Inhibition of raloxifene glucuronidation, UGT1A9, second line per inhibitor (G2): raloxifene 50 μM, 250 μg/ml Supersomes, 1 mM UDPGA, 15 min; for activity at 15 min, 2 μM / activity at 15 min, 5 µM / activity at 15 min, 10 µM / activity at 15 min, 25 µM / activity at 15 min, 50 µM: human, Supersomes with recombinant human UGT1A9, pH 7.5, probe raloxifene 50 μM; for Inhibition of raloxifene glucuronidation, UGT1A9, second line per inhibitor (G2): second line (G2, metabolite not given)
# T1 sequence (O60656 26-530): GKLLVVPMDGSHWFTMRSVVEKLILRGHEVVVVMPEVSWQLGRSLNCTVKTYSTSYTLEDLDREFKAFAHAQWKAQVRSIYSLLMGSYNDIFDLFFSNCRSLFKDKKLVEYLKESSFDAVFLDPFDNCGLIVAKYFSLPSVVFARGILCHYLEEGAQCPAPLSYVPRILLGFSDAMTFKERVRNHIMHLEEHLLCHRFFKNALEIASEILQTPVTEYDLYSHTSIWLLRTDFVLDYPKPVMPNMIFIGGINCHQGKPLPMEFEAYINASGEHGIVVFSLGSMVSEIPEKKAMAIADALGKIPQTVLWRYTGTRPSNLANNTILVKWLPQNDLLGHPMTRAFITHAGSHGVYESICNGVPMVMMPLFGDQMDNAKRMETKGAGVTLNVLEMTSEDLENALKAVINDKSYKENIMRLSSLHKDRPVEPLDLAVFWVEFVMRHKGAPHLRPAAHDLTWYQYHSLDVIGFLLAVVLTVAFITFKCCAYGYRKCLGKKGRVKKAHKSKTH
# [1] = system: UGT enzymes of pooled human jejunum microsomes; assay: Inhibition of 2ME2 glucuronidation (MG1) in pooled human jejunum microsomes; format: biochemical; settings: jejunum HJ61, 2ME2 50 μM
# Text: (§1) Compounds were eluted using a binary solvent gradient system where solvent A was dilute phosphoric acid (pH 3) and solvent B was 80:20 acetonitrile-methanol. […] Detection was at 280 nm.
# [2] = target: T2, UGT enzymes of human liver microsomes (Homo sapiens, UniProt P16662); assay: Inhibition of zidovudine glucuronidation in human liver microsomes; format: biochemical; settings: liver lot 062101
# T2 construct: residual metabolism (percentage of control), zidovudine glucuronidation; other: liver lot 062101; residual metabolism (percentage of control), zidovudine glucuronidation; residual metabolism (percentage of control)
# T2 sequence (P16662 1-529): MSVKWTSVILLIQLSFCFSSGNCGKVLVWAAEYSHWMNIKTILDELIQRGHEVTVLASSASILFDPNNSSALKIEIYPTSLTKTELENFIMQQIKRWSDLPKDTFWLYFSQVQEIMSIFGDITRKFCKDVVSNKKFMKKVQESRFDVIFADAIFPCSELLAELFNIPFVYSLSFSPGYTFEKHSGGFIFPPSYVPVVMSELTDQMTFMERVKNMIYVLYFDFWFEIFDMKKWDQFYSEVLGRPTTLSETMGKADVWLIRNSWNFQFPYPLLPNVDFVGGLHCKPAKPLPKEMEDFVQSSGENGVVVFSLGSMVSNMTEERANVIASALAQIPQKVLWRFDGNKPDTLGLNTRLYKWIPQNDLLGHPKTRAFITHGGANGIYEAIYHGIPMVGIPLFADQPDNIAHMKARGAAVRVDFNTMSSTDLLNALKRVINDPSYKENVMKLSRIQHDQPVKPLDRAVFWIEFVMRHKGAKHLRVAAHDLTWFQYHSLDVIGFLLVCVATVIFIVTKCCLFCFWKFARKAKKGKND
# Method: Compounds were eluted using a binary solvent gradient system where solvent A was dilute phosphoric acid (pH 3) and solvent B was acetonitrile.
# Standardized incubations utilized 500 μM zidovudine substrate, 1 mg/ml microsomal protein, 5 mM UDPGA and a 30 min incubation time. […] Int.
# [3] = system: UGT enzymes of pooled human jejunum microsomes; assay: Inhibition of raloxifene glucuronidation (G1, G2) in pooled human jejunum microsomes; format: biochemical; settings: jejunum HJ61; inhibitor 10 μM
# Method: Compounds were eluted using a binary solvent gradient system. […] Solvent B was methanol. […] Detection was at 280 nm.
# Standardized incubations utilized […] microsomal protein, 1 mM UDPGA and a 30 min incubation time.
# [4] = system: T3, UGT enzymes of human liver microsomes; assay: Inhibition of estradiol (E2) glucuronidation in human liver microsomes; format: biochemical; settings: liver 032101; E2 50 μM; inhibitor 100 μM
# T3 construct: residual metabolism (% of control), E2-3-β-D-glucuronide; other: liver 032101; residual metabolism (% of control), E2-3-β-D-glucuronide
# Text: as §1
# [5] = system: T4, UGT enzymes of human liver microsomes; assay: as above; format: biochemical; settings: liver 032101; E2 50 μM; inhibitor 100 μM
# T4 construct: residual metabolism (% of control), E2-17-β-D-glucuronide; other: liver 032101; residual metabolism (% of control), E2-17-β-D-glucuronide
# Text: as §1
# [6] = system: UGT enzymes of human liver microsomes; assay: as above; format: biochemical; settings: E2 50 μM
# Text: as §1
# UGT1A8 = target: T5, UGT1A8 (Homo sapiens, UniProt Q9HAW9); assay: Inhibition of raloxifene glucuronidation by recombinant UGT1A8 Supersomes; settings: human, Supersomes with recombinant human UGT1A8, pH 7.5, probe raloxifene 50 μM, inhibitor 10 μM
# T5 sequence (Q9HAW9 26-530): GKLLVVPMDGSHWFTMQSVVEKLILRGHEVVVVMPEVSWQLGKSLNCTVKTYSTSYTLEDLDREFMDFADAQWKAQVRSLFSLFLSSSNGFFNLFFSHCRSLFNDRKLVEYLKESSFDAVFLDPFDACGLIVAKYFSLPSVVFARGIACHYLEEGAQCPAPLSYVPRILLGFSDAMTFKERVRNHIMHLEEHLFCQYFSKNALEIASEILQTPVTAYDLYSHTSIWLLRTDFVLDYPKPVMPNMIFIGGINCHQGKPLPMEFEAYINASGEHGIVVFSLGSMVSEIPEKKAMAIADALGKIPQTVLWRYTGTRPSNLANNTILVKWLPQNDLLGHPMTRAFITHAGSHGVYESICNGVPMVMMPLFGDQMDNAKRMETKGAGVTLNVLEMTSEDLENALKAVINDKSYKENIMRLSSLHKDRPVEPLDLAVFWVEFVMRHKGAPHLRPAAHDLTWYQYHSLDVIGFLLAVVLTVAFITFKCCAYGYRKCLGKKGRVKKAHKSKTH
# Method: Compounds were eluted using a binary solvent gradient system. Solvent A was water brought to pH 8 with NH4OH. Solvent B was methanol. Solvent flow rate was 1 ml/min and the column temperature was maintained at 50° C. Detection was at 280 nm. […] The system was then returned to the initial conditions and equilibrated for 3 min.
smiles,measurement,setting,value
"CC/C(=C(/CC)c1ccc(O)cc1)c1ccc(O)cc1 [Diethylstilbestrol, reference compound]","Inhibition of raloxifene glucuronidation, UGT1A9, first line per inhibitor (G1)",UGT1A9; inhibitor 2 μM,90 (0)
same,"Inhibition of raloxifene glucuronidation, UGT1A9, first line per inhibitor (G1)",UGT1A9; inhibitor 5 μM,86 (0)
same,"Inhibition of raloxifene glucuronidation, UGT1A9, first line per inhibitor (G1)",UGT1A9; inhibitor 10 μM,78 (3)
same,"Inhibition of raloxifene glucuronidation, UGT1A9, first line per inhibitor (G1)",UGT1A9; inhibitor 25 μM,49 (5)
same,"Inhibition of raloxifene glucuronidation, UGT1A9, first line per inhibitor (G1)",UGT1A9; inhibitor 50 μM,31 (2)
same,"activity at 15 min, 2 μM","UGT1A9; formation of glucuronide G1, % of control metabolism, raloxifene G1, UGT1A9, inhibitor 2 μM",90%
same,"activity at 15 min, 5 µM","UGT1A9; formation of glucuronide G1, % of control metabolism, raloxifene G1, UGT1A9, inhibitor 5 μM",86%
same,"activity at 15 min, 10 µM","UGT1A9; formation of glucuronide G1, % of control metabolism, raloxifene G1, UGT1A9, inhibitor 10 μM",78%
same,"activity at 15 min, 25 µM","UGT1A9; formation of glucuronide G1, % of control metabolism, raloxifene G1, UGT1A9, inhibitor 25 μM",49%
same,"activity at 15 min, 50 µM","UGT1A9; formation of glucuronide G1, % of control metabolism, raloxifene G1, UGT1A9, inhibitor 50 μM",31%
same,"activity at 15 min, 2 μM","UGT1A9; formation of glucuronide G2, % of control metabolism, raloxifene G2, UGT1A9, inhibitor 2 μM",175%
same,"activity at 15 min, 5 µM","UGT1A9; formation of glucuronide G2, % of control metabolism, raloxifene G2, UGT1A9, inhibitor 5 μM",260%
same,"activity at 15 min, 10 µM","UGT1A9; formation of glucuronide G2, % of control metabolism, raloxifene G2, UGT1A9, inhibitor 10 μM",290%
same,"activity at 15 min, 25 µM","UGT1A9; formation of glucuronide G2, % of control metabolism, raloxifene G2, UGT1A9, inhibitor 25 μM",309%
same,"activity at 15 min, 50 µM","UGT1A9; formation of glucuronide G2, % of control metabolism, raloxifene G2, UGT1A9, inhibitor 50 μM",245%
same,"Inhibition of raloxifene glucuronidation, UGT1A9, second line per inhibitor (G2)",UGT1A9; inhibitor 2 μM,175 (0)
same,"Inhibition of raloxifene glucuronidation, UGT1A9, second line per inhibitor (G2)",UGT1A9; inhibitor 5 μM,260 (3)
same,"Inhibition of raloxifene glucuronidation, UGT1A9, second line per inhibitor (G2)",UGT1A9; inhibitor 10 μM,290 (9)
same,"Inhibition of raloxifene glucuronidation, UGT1A9, second line per inhibitor (G2)",UGT1A9; inhibitor 50 μM,245 (3)
same,"residual metabolism (% of control), 2ME2 MG1",[1]; inhibitor 1 μM,93 (4) %
same,"residual metabolism (% of control), 2ME2 MG1",[1]; inhibitor 10 μM,75 (1) %
same,"residual metabolism (percentage of control), zidovudine glucuronidation",[2]; inhibitor 50 μM,50 (4) % and 44 (2) %
same,"residual metabolism (percentage of control), zidovudine glucuronidation",[2]; inhibitor 100 μM,34 (4) %
same,"residual metabolism (percentage of control), zidovudine glucuronidation",[2]; inhibitor 200 μM,15 (1) %
same,"residual metabolism (percentage of control), zidovudine glucuronidation",[2]; inhibitor 500 μM,0 (0) %
same,"% of control metabolism, raloxifene G1",[3],78 (0) %
same,"% of control metabolism, raloxifene G2",[3],90 (4) %
same,"residual metabolism (% of control), E2-3-β-D-glucuronide",[4],"69 (1), %"
same,"residual metabolism (% of control), E2-17-β-D-glucuronide",[5],217 (5) %
same,"residual metabolism (% of control), E2-3-β-D-glucuronide","[6]; liver 032101, inhibitor 1 μM","85 (1), %"
same,"residual metabolism (% of control), E2-17-β-D-glucuronide","[6]; liver 032101, inhibitor 1 μM",361 (6) %
same,"residual metabolism (% of control), E2-3-β-D-glucuronide","[6]; liver 032101, inhibitor 10 μM","57 (4), %"
same,"residual metabolism (% of control), E2-17-β-D-glucuronide","[6]; liver 032101, inhibitor 10 μM",545 (32) %
same,"residual metabolism (% of control), E2-3-β-D-glucuronide","[6]; liver 062101, inhibitor 1 μM",86 (3) %
same,"residual metabolism (% of control), E2-17-β-D-glucuronide","[6]; liver 062101, inhibitor 1 μM",254 (2) %
same,"residual metabolism (% of control), E2-3-β-D-glucuronide","[6]; liver 062101, inhibitor 10 μM",71 (2) %
same,"residual metabolism (% of control), E2-17-β-D-glucuronide","[6]; liver 062101, inhibitor 10 μM",446 (7) %
same,"activity at 15 min, 10 µM","UGT1A8; formation of glucuronide G1, % of control metabolism, raloxifene G1, UGT1A8",156%
same,"activity at 15 min, 10 µM","UGT1A8; formation of glucuronide G2, % of control metabolism, raloxifene G2, UGT1A8",73%
